Source: patent publication US10736898B2, “Positive allosteric modulators of the muscarinic acetylcholine receptor M4” (Vanderbilt University, priority 2017, dated 2020)

Target: T1, Human M4 (Homo sapiens, UniProt P08173)
T1 construct: expressed in transfected cells
T1 sequence (P08173 1-479): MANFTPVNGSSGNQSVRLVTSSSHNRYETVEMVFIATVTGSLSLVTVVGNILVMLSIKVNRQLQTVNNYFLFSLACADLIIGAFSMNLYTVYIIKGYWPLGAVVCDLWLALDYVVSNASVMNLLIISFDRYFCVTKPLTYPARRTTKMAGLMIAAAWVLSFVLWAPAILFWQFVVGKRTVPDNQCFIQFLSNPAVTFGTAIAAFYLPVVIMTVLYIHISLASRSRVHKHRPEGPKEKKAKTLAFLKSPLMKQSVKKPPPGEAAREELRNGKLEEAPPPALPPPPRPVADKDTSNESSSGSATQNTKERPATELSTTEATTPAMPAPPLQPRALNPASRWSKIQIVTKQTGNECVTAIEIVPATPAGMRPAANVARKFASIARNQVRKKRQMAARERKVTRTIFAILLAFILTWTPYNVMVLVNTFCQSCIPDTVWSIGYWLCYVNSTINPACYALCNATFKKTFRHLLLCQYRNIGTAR
Assay: mAChR M4 cell-based functional assay (calcium flux, potentiation of EC20 acetylcholine response)
Settings: for Emax at 30 µM / Emax: % ACh maximum at 30 μM, human M4; for EC50: CHO-K1 cells with human M4 and Gqi5, increase in EC20 acetylcholine response

Emax at 30 µM	EC50	Emax	Compound
65%	1010 nM	–	Cc1nc(C2CC2)nc2sc3c(N4CCCC4)nccc3c12 [Compound 38, 2-cyclopropyl-4-methyl-8-pyrrolidin-1-yl-pyrido[4,5]thieno[1,2-d]pyrimidine]
96.9%	263 nM	–	CCc1nc(C)c2c(n1)sc1c(N3CCC(F)(F)C3)nccc12 [Compound 35, 8-(3,3-difluoropyrrolidin-1-yl)-2-ethyl-4-methyl-pyrido[4,5]thieno[1,2-b]pyrimidine]
79.3%	1370 nM	–	[2H]C([2H])(Nc1ncnc2c1sc1nc(C)nc(C)c12)c1ccc(C(C)(C)O)cc1 [Compound 5, 2-(4-(((7,9-dimethylthieno[2,3-d:4,5-d′]dipyrimidin-4-yl)amino)methyl-d2)phenyl)propan-2-ol]
62.4%	1060 nM	–	Cc1nc(C)c2c(n1)sc1c(N3CC[C@H](F)C3)ncnc12 [Compound 19, (S)-4-(3-fluoropyrrolidin-1-yl)-7,9-dimethylthieno[2,3-d:4,5-d′]dipyrimidine]
–	693 nM	60.9%	5-chloro-2,4-dimethyl-8-pyrrolidin-1-yl-pyrido[4,5]thieno[1,2-b]pyrimidine [Compound 45]
75.5%	156 nM	–	Cc1nc(C)c2c(n1)sc1c(N3CC4CC4C3)ncnc12 (stereo not drawn) [Compound 8, 4-(3-azabicyclo[3.1.0]hexan-3-yl)-7,9-dimethylthieno[2,3-d:4,5-d′]dipyrimidine]
66.4%	> 10000 nM	–	Cc1nc(CC(C)C)nc2sc3c(NCc4ccc(C(C)(C)O)cc4)nccc3c12 [Compound 36, 2-[4-[[(2-isobutyl-4-methyl-pyrido[4,5]thieno[1,2-b]pyrimidin-8-yl)amino]methyl]phenyl]propan-2-ol]
71.2%	2090 nM	–	Cc1nc(C)c2c(n1)sc1c(NCc3ccc(C(C)(O)C4CC4)cc3)ncnc12 (stereo not drawn) [Compound 7, 1-cyclopropyl-1-(4-(((7,9-dimethylthieno[2,3-d:4,5-d′]dipyrimidin-4-yl)amino)methyl)phenyl)ethan-1-ol]
84.4%	169 nM	–	COc1ccc(CNc2nccc3c2sc2nc(C)nc(C)c23)cc1F [Compound 13, N-(3-fluoro-4-methoxybenzyl)-2,4-dimethylpyrido[4′,3′:4,5]thieno[2,3-d]pyrimidin-8-amine]
39.1%	5570 nM	–	Cc1nc(C)c2c(n1)sc1c(N3CCOCC3)ncnc12 [Compound 9, 4-(7,9-dimethylthieno[2,3-d:4,5-d′]dipyrimidin-4-yl)morpholine]
60.1%	997 nM	–	Cc1nc(C)c2c(n1)sc1c(NC3CCC3)ncc(Cl)c12 [Compound 44, 5-chloro-N-cyclobutyl-2,4-dimethyl-pyrido[4,5]thieno[1,2-b]pyrimidin-8-amine]
37.7%	> 10000 nM	–	CCN(CC)c1nccc2c1sc1nc(C)nc(C)c12 [Compound 24, N,N-diethyl-2,4-dimethyl-pyrido[4,5]thieno[1,2-b]pyrimidin-8-amine]
–	723 nM	60.5%	5-chloro-N-[(3-fluoro-4-methoxy-phenyl)methyl]-2,4-dimethyl-pyrido[4,5]thieno[1,2-b]pyrimidin-8-amine [Compound 42]
50.3%	4350 nM	–	Cc1nc(C)c2c(n1)sc1c(NCc3ccc(F)c(F)c3)ncc(Cl)c12 [Compound 43, 5-chloro-N-[(3,4-difluorophenyl)methyl]-2,4-dimethyl-pyrido[4,5]thieno[1,2-b]pyrimidin-8-amine]
88.7%	840 nM	–	Cc1nc(C)c2c(n1)sc1c(NCc3ccc(C(C)(C)O)cc3F)nccc12 [Compound 22, 2-[4-[[(2,4-dimethylpyrido[4,5]thieno[1,2-b]pyrimidin-8-yl)amino]methyl]-3-fluoro-phenyl]propan-2-ol]
57.9%	73 nM	–	Cc1nc(C)c2c(n1)sc1c(N3CCCCC3)nccc12 [Compound 12, 2,4-dimethyl-8-(1-piperidyl)pyrido[4′,3′:4,5]thieno[2,3-d]pyrimidine]
81.3%	2020 nM	–	Cc1nc(C)c2c(n1)sc1c(NCc3ccc(C4(O)CCC4)cc3)ncnc12 [Compound 6, 1-(4-(((7,9-dimethylthieno[2,3-d:4,5-d′]dipyrimidin-4-yl)amino)methyl)phenyl)cyclobutan-1-ol]
91.9%	3300 nM	–	Cc1nc(C)c2c(n1)sc1c(NCc3ccc(C(C)(C)O)cc3)ncc(Cl)c12 [Compound 41, 2-(4-(((5-chloro-2,4-dimethylpyrido[4′,3′:4,5]thieno[2,3-d]pyrimidin-8-yl)amino)methyl)phenyl)propan-2-ol]

Emax at 30 µM	EC50	Emax	Compound
76.9%	635 nM	–	Cc1nc(C)c2c(n1)sc1c(N3CCC(F)(F)C3)ncnc12 [Compound 18, 4-(3,3-difluoropyrrolidin-1-yl)-7,9-dimethylthieno[2,3-d:4,5-d′]dipyrimidine]
74.2%	449 nM	–	Cc1nc(C2CC2)nc2sc3c(N4CCOCC4)nccc3c12 [Compound 30, 4-(2-cyclopropyl-4-methyl-pyrido[4,5]thieno[1,2-d]pyrimidin-8-yl)morpholine]
88.1%	601 nM	–	CCc1nc(C)c2c(n1)sc1c(NCc3ccc(C(C)(C)O)cc3)nccc12 [Compound 34, 2-[4-[[(2-ethyl-4-methyl-pyrido[4,5]thieno[1,2-b]pyrimidin-8-yl)amino]methyl]phenyl]propan-2-ol]
52.6%	1410 nM	–	Cc1nc(C)c2c(n1)sc1c(N3CCC(F)(F)CC3)ncnc12 [Compound 21, 4-(4,4-difluoropiperidin-1-yl)-7,9-dimethylthieno[2,3-d:4,5-d′]dipyrimidine]
86.4%	2270 nM	–	Cc1nc(C2CC2)nc2sc3c(NCc4ccc(C(C)(C)O)c(F)c4)nccc3c12 [Compound 27, 2-[4-[[(2-cyclopropyl-4-methyl-pyrido[4,5]thieno[1,2-d]pyrimidin-8-yl)amino]methyl]-2-fluoro-phenyl]propan-2-ol]
69%	1860 nM	–	Cc1nc(C2CC2)nc2sc3c(NC4CCCC4)nccc3c12 [Compound 39, N-cyclopentyl-2-cyclopropyl-4-methyl-pyrido[4,5]thieno[1,2-d]pyrimidin-8-amine]
62.4%	6690 nM	–	Cc1nc(C2CC2)nc2sc3c(NCc4ccc(F)c(F)c4)nccc3c12 [Compound 29, 2-cyclopropyl-N-[(3,4-difluorophenyl)methyl]-4-methyl-pyrido[4,5]thieno[1,2-d]pyrimidin-8-amine]
73.3%	134 nM	–	Cc1nc(C)c2c(n1)sc1c(NC3CCCC3)nccc12 [Compound 15, N-cyclopentyl-2,4-dimethylpyrido[4′,3′:4,5]thieno[2,3-d]pyrimidin-8-amine]
94.6%	42 nM	–	Cc1nc(C)c2c(n1)sc1c(N3CCC(F)(F)C3)nccc12 [Compound 25, 8-(3,3-difluoropyrrolidin-1-yl)-2,4-dimethyl-pyrido[4,5]thieno[1,2-b]pyrimidine]
64.8%	1160 nM	–	COc1ccc(CNc2ncnc3c2sc2nc(C)nc(C)c23)cc1F [Compound 3, N-(3-fluoro-4-methoxybenzyl)-7,9-dimethylthieno[2,3-d:4,5-d′]dipyrimidin-4-amine]
59.9%	1440 nM	–	Cc1nc(C)c2c(n1)sc1c(N3CCC3)ncnc12 [Compound 16, 4-(azetidin-1-yl)-7,9-dimethylthieno[2,3-d:4,5-d′]dipyrimidine]
55%	> 10000 nM	–	Cc1nc(C2CC2)nc2sc3c(N4CCCCC4)nccc3c12 [Compound 37, 2-cyclopropyl-4-methyl-8-(1-piperidyl)pyrido[4,5]thieno[1,2-d]pyrimidine]
94.8%	300 nM	–	Cc1nc(C)c2c(n1)sc1c(NC3CCC3)nccc12 [Compound 26, N-cyclobutyl-2,4-dimethyl-pyrido[4,5]thieno[1,2-b]pyrimidin-8-amine]
97%	1390 nM	–	Cc1nc(C2CC2)nc2sc3c(NCc4ccc(C(C)(C)O)cc4)nccc3c12 [Compound 28, 2-[4-[[(2-cyclopropyl-4-methyl-pyrido[4,5]thieno[1,2-d]pyrimidin-8-yl)amino]methyl]phenyl]propan-2-ol]
66.7%	734 nM	–	Cc1nc(C)c2c(n1)sc1c(NCc3ccc(C(C)(C)O)cc3)ncc(C#N)c12 [Compound 46, 8-((4-(2-hydroxypropan-2-yl)benzyl)amino)-2,4-dimethylpyrido[4′,3′:4,5]thieno[2,3-d]pyrimidine-5-carbonitrile]
77%	73 nM	–	Cc1nc(C)c2c(n1)sc1c(N3CCCC3)nccc12 [Compound 11, 2,4-Dimethyl-8-(pyrrolidin-1-yl)pyrido[4′,3′:4,5]thieno[2,3-d]pyrimidine]
76%	1580 nM	–	Cc1nc(C)c2c(n1)sc1c(N3CC4(COC4)C3)ncnc12 [Compound 10, 6-(7,9-dimethylthieno[2,3-d:4,5-d′]dipyrimidin-4-yl)-2-oxa-6-azaspiro[3.3]heptane]
51.7%	288 nM	–	Cc1nc(C)c2c(n1)sc1c(N3CCCC3)ncnc12 [Compound 2, 7,9-dimethyl-4-(pyrrolidin-1-yl)thieno[2,3-d:4,5-d′]dipyrimidine]
